Experimental data as given in ChEMBL document CHEMBL1153288, “1,3,4-Oxadiazole substituted naphthyridines as HIV-1 integrase inhibitors. Part 2: SAR of the C5 position” (Bioorg Med Chem Lett, 2009).
pEC50, pIC50: −log10 of the molar value.

What was measured:
[1] = Inhibition of recombinant HIV integrase strand transfer activity; set-up: species or system Human immunodeficiency virus
[2] = tested on: Human immunodeficiency virus; assay: Antiviral activity against G-pseudotyped HIV expressed in 293T cells with pGI3Luci; type: functional, organism-based; settings: Human immunodeficiency virus 1, HEK-293T
[3] = Therapeutic index, CC50 for human 293T cells to EC50 for G-pseudotyped HIV; type: cell-based; settings: read-out: Ratio CC50/EC50

SMILES | pIC50 [1] | pEC50 [2] | selectivity ratio [3]
CN(C)S(=O)(=O)Nc1nc(-c2nnc(Cc3ccc(F)cc3)o2)c(O)c2ncccc12 | 7.82 | 7.08 | 127
CS(=O)(=O)N1CCN(c2nc(-c3nnc(Cc4ccc(F)cc4)o3)c(O)c3ncccc23)CC1 | 7.72 | 7.42 | 162
N#Cc1ccc(-c2nc(-c3nnc(Cc4ccc(F)cc4)o3)c(O)c3ncccc23)cc1 | 7.82 | 7.59 | 72
CNc1nc(-c2nnc(Cc3ccc(F)cc3)o2)c(O)c2ncccc12 | 7.13 | 6.40 | 30
CS(=O)(=O)Nc1ccc(-c2nc(-c3nnc(Cc4ccc(F)cc4)o3)c(O)c3ncccc23)cc1 | 8.52 | 8.05 | 915
CCOC(=O)C(=O)Nc1nc(-c2nnc(Cc3ccc(F)cc3)o2)c(O)c2ncccc12 | 7.48 | 5.89 | 10
CC(C)NC(=O)c1cccc(-c2nc(-c3nnc(Cc4ccc(F)cc4)o3)c(O)c3ncccc23)c1 | 8.00 | 7.55 | 182
Oc1c(-c2nnc(Cc3ccc(F)cc3)o2)nc(-c2ccoc2)c2cccnc12 | 7.64 | 7.00 | 116
Oc1c(-c2nnc(Cc3ccc(F)cc3)o2)nc(-c2cnccn2)c2cccnc12 | 7.70 | 6.77 | 24
CC(=O)Nc1nc(-c2nnc(Cc3ccc(F)cc3)o2)c(O)c2ncccc12 | 7.14 | 6.96 | 127
CN(C)S(=O)(=O)c1ccccc1-c1nc(-c2nnc(Cc3ccc(F)cc3)o2)c(O)c2ncccc12 | 8.40 | 7.54 | 67
CN(C)C(=O)N1CCN(c2nc(-c3nnc(Cc4ccc(F)cc4)o3)c(O)c3ncccc23)C(=O)C1 | 7.64 | 7.06 | 120
CS(=O)(=O)c1cccc(-c2nc(-c3nnc(Cc4ccc(F)cc4)o3)c(O)c3ncccc23)c1 | 8.22 | 7.89 | 234
O=C(O)c1nc(-c2nnc(Cc3ccc(F)cc3)o2)c(O)c2ncccc12 | 6.07 | 5.36 | > 3
O=C(c1nc(-c2nnc(Cc3ccc(F)cc3)o2)c(O)c2ncccc12)N1CCC(O)CC1 | 7.57 | 6.66 | > 65
CS(=O)(=O)Nc1cccc(-c2nc(-c3nnc(Cc4ccc(F)cc4)o3)c(O)c3ncccc23)c1 | 8.10 | 7.85 | 435
Oc1c(-c2nnc(Cc3ccc(F)cc3)o2)nc(-c2ccncc2)c2cccnc12 | 8.10 | 7.46 | 200
O=C1OCCN1c1nc(-c2nnc(Cc3ccc(F)cc3)o2)c(O)c2ncccc12 | 7.89 | 7.68 | > 666
O=C(NCCCO)c1nc(-c2nnc(Cc3ccc(F)cc3)o2)c(O)c2ncccc12 | 7.15 | 6.33 | > 30
CN1CCCN(c2nc(-c3nnc(Cc4ccc(F)cc4)o3)c(O)c3ncccc23)S1(=O)=O | 8.22 | 7.51 | 294
O=C1CCCCN1c1nc(-c2nnc(Cc3ccc(F)cc3)o2)c(O)c2ncccc12 | 7.06 | 7.06 | > 160
Oc1c(-c2nnc(Cc3ccc(F)cc3)o2)nc(-c2ccccc2)c2cccnc12 | 7.54 | 7.44 | 49
CNS(=O)(=O)c1ccccc1-c1nc(-c2nnc(Cc3ccc(F)cc3)o2)c(O)c2ncccc12 | 8.40 | 7.66 | 173
CN(C)S(=O)(=O)c1ccc(-c2nc(-c3nnc(Cc4ccc(F)cc4)o3)c(O)c3ncccc23)cc1 | 7.74 | 8.05 | 218
CNC(=O)c1ccc(-c2nc(-c3nnc(Cc4ccc(F)cc4)o3)c(O)c3ncccc23)cc1 | 8.40 | 7.92 | 780
